Results as given in patent US11584737B2, “Heterocyclic compound” (TAKEDA PHARMACEUTICAL COMPANY LIMITED, priority 2018, dated 2023).

Key:
[1] = tested on: Human breast cancer cells SUM149PT; assay: Antitumor action on SUM149PT cells tumor-bearing model; assay type: in vivo; settings: 60 mg/kg orally two times per day for 2 weeks; SUM149PT subcutaneous transplant in BALB/cAJcl-nu/nu mice; average tumor volume increase ratio vs control group
Protocol: Experimental Example 6: Antitumor Action on SUM149PT CELLS Tumor-Bearing Model
Human breast cancer cells SUM149PT were suspended in a solution of Matrigel (BD BIOSCIENCES):HBSS (Thermo Fisher Scientific)=1:1, and subcutaneously transplanted at 3×10^6 cells to the abdomen of BALB/cAJcl-nu/nu (CLEA Japan, Inc.). The tumor diameter of the engrafted tumor was measured and the tumor volume was calculated by the following formula. Tumor volume=major axis×minor axis×minor axis×(1/2)
Individuals having a tumor grown to a volume of about 120 mm^3 were selected, and 5 mice per group were used for the experiment. A suspension of the test compound in 0.5% methylcellulose solution (FUJIFILM Wako Pure Chemical Corporation) was orally administered at a dose of 60 mg/kg (10 mL/kg) two times per day for 2 weeks. The tumor volume was measured over time one day before the start of the administration, and every 4 days from day 3. The next day of the completion of medication for 14 days, the tumor diameter was finally measured and the tumor volume was calculated. The tumor proliferation rate of the test compound administration group in comparison with the control administration group was taken as an average tumor volume increase ratio T/C and calculated by the following formula. […]

CDK12/CycK complex = CDK12/CycK complex (Homo sapiens, UniProt Q9NYV4); assay: Measurement of CDK12 inhibitory activity by binding assay (BODIPY-FL labeled AT-7519 high concentration conditions, 1320 nM); settings: inhibitory rate against CDK12 at 1 μM test compound, 1320 nM BODIPY-FL-labeled AT-7519, 8 nM CDK12/CycK
CDK12/CycK complex, sequence (Q9NYV4 whole entry, species assumed): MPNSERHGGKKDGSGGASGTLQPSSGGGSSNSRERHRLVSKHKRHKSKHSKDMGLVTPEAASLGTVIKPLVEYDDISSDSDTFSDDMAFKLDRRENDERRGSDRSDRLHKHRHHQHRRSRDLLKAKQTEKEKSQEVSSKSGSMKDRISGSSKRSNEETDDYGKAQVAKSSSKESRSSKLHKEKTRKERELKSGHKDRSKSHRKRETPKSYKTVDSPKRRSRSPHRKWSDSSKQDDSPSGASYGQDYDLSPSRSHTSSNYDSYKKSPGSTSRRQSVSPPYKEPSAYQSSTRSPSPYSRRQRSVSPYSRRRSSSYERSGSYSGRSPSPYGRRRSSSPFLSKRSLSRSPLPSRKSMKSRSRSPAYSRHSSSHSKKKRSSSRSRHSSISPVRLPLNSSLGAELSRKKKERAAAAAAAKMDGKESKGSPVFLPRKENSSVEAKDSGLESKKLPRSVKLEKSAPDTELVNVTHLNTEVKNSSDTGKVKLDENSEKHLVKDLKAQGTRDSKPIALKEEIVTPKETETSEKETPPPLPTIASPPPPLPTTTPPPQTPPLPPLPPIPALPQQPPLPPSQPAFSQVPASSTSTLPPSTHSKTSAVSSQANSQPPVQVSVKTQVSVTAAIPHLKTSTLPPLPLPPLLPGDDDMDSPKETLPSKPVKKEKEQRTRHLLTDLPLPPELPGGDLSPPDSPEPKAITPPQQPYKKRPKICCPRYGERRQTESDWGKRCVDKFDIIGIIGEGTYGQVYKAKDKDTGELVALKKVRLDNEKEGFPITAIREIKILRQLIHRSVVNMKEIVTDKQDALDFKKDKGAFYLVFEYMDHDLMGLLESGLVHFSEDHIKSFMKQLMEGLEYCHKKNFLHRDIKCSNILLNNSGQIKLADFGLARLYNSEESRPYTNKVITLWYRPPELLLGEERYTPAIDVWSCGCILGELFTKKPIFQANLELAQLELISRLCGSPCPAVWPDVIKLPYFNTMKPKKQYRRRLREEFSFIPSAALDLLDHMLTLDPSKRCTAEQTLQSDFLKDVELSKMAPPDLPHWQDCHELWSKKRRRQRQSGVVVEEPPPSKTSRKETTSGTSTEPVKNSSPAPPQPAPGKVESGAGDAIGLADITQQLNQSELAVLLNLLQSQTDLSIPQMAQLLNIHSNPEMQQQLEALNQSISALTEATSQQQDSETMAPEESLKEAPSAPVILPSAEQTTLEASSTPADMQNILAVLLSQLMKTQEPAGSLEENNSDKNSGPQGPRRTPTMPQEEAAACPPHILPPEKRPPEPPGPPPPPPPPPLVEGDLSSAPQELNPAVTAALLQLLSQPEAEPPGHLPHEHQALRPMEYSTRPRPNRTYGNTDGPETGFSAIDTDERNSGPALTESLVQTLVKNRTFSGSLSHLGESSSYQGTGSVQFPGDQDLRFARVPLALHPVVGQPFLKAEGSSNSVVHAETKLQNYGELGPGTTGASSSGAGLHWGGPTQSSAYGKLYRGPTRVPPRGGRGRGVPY
CDK12/CycK complex, sequence (O75909 whole entry partner, species assumed): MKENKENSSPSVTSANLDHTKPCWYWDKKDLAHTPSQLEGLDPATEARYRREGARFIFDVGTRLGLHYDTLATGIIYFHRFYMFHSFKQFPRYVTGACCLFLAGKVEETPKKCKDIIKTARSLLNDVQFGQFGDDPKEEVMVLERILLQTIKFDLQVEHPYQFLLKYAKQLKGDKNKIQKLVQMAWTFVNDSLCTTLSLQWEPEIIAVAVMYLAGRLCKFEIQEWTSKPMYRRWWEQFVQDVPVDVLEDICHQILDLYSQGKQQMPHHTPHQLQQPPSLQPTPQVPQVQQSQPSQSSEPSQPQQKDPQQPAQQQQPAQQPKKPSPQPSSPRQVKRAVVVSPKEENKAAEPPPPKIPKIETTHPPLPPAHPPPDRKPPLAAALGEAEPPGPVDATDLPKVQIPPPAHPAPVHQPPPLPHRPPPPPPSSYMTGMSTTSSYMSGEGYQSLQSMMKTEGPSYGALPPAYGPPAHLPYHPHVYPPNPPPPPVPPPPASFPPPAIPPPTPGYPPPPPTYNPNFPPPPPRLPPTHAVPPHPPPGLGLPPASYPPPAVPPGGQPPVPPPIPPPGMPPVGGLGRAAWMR
How it was run: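 His-tagged CDK12/CycK (8 nM) was incubated with test compound, BODIPY-FL-AT-7519 tracer (1320 nM), Tb-streptavidin (0.2 nM) and biotin-anti-His antibody (0.4 nM) for 120 min at room temperature. TR-FRET ratio (BODIPY-FL/Tb) gave % inhibition versus no-compound control and 30 μM AT-7519 blank; compounds tested at 1 μM.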

A2780 cells = assay: In vitro proliferation suppression test (CellTiter-Glo); assay type: cell-based, human; settings: Homo sapiens, 72 h, A2780 cell proliferation inhibitory rate at 1 μM test compound, three days
How it was run: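 A2780 cells in RPMI1640 with 10% FBS were exposed to 1 μM compound for three days at 37° C, 5% CO2. CellTiter-Glo luminescence read; inhibition (%) calculated relative to wells without compound.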

COc1ncc(-c2cnc(N(C(=O)NCc3ccccc3)[C@H]3CC[C@H](Nc4ncc(C(F)(F)F)c(OC5COC5)n4)CC3)cn2)cn1 [Example 612, 3-benzyl-1-(5-(2-methoxypyrimidin-5-yl)pyrazin-2-yl)-1-(trans-4-((4-(oxetan-3-yloxy)-5-(trifluoromethyl)pyrimidin-2-yl)amino)cyclohexyl)urea]
T/C (%) [1]: −22% | inhibition at 1 µM (CDK12/CycK complex): 100% | inhibition at 1 µM (A2780 cells): 97%
